The values that follow are results of earlier work, collected in patent US20220202682A1, “INCREASING THE STABILITY OF AGENTS FOR THE TREATMENT OF KERATINOUS MATERIAL” (Henkel AG & Co. KGaA, priority 2019, published 2022).

The conditions of this data set: 25° C.
For `O=S(=O)([O-])c1ccc(N=Nc2c(O)ccc3ccccc23)cc1.[Na+]` [Acid Orange 7, sodium salt of 4-[(2-hydroxy-1-naphthyl)azo]benzene sulphonate], the solubility in water entry is given as “more than 7 g/L”.

`Nc1cc(S(=O)(=O)[O-])cc2cc(S(=O)(=O)[O-])c(N=Nc3ccccc3)c(O)c12.[Na+].[Na+]` [Acid Red 33, disodium salt of 5-amino-4-hydroxy-3-(phenylazo)-naphthalene-2,7-disulphonate]: the solubility in water was 2500 µg/mL.

In the case of `O=C([O-])c1c(Cl)c(Cl)c(Cl)c(Cl)c1-c1c2c(Br)cc(=O)c(Br)c-2oc2c(Br)c(O)cc(Br)c12.O=C([O-])c1c(Cl)c(Cl)c(Cl)c(Cl)c1-c1c2c(Br)cc(=O)c(Br)c-2oc2c(Br)c(O)cc(Br)c12.[Na+].[Na+]` [Acid Red 92, disodium salt of 3,4,5,6-tetrachloro-2-(1,4,5,8-tetrabromo-6-hydroxy-3-oxoxanthen-9-yl)benzoic acid], the solubility in water result was “greater than 10 g/L”.

Regarding `O=C([O-])C1=NN(c2ccc(S(=O)(=O)[O-])cc2)C(=O)C1N=Nc1ccc(S(=O)(=O)[O-])cc1.[Na+].[Na+].[Na+]` (stereo not shown) [Acid Yellow 23, trisodium salt of 4,5-dihydro-5-oxo-1-(4-sulfophenyl)-4-((4-sulfophenyl)azo)-1H-pyrazole-3-carboxylic acid], the “solubility in water” value was “highly soluble”.
